In patent US20100173888A1 (Pfizer Inc, priority 2008, published 2010):
Structures can show the parent of a compound that is named as a salt.

Target: human recombinant H-PGDS (Homo sapiens, UniProt O60760)
Experiment: Fluorescence intensity h-PGDS TBA enzyme assay (PGH2 depletion, MDA/TBA fluorescence)
Type: biochemical
Conditions: 1:175,000 human recombinant H-PGDS, 42 second reaction, 3-fold serial dilutions, highest concentration typically 1 μM
Outline: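 Recombinant human H-PGDS preincubated with inhibitor 10 min at room temperature in pH 8.0 Tris, MgCl2, IgG, 2.5 mM glutathione, 0.5% DMSO. Reaction with 5.0 μM PGH2 stopped at 42 s with FeCl2/citric acid; MDA–TBA fluorescence (ex 530/em 565 nm) read after 70° C. IC50 by 4-parameter fit, 11 concentrations.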

Chain of human recombinant H-PGDS (O60760 whole entry): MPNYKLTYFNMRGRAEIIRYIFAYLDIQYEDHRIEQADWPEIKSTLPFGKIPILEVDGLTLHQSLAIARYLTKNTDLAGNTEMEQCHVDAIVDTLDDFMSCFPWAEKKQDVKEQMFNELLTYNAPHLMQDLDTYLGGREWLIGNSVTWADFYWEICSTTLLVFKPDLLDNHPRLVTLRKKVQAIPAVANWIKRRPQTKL

| Structure (SMILES) | IC50 |
| --- | --- |
| COCCNC(=O)[C@@H]1CC[C@H](NC(=O)c2ccc(-c3cccc(F)c3)nc2)C1 [Example 169, 6-(3-Fluorophenyl)-N-{(1S,3R)-3-[(2-methoxyethyl)carbamoyl]cyclopentyl}nicotinamide] | 15.1 nM |
| O=C(N[C@H]1CC[C@@H](C(=O)N2CCOCC2)C1)c1ccc(-c2cccc(F)c2)nc1 [Example 170, 6-(3-Fluorophenyl)-N-[(1S,3R)-3-(morpholin-4-ylcarbonyl)cyclopentyl]nicotinamide] | 4.3 nM |
| CC(C)(O)CNC(=O)[C@@H]1CC[C@H](NC(=O)c2ccc(-c3cccc(F)c3)nc2)C1 [Example 171, 6-(3-Fluorophenyl)-N-{(1S,3R)-3-[(2-hydroxy-2-methylpropyl)carbamoyl]cyclopentyl}nicotinamide] | 6.3 nM |
| CN1CCN(C(=O)[C@@H]2CC[C@H](NC(=O)c3ccc(-c4cccc(F)c4)nc3)C2)CC1=O [Example 173, 6-(3-Fluorophenyl)-N-{(1S,3R)-3-[(4-methyl-3-oxopiperazin-1-yl)carbonyl]cyclopentyl}nicotinamide] | 21.6 nM |
| CN1CCC(NC(=O)[C@@H]2CC[C@H](NC(=O)c3ccc(-c4cccc(F)c4)nc3)C2)CC1 [Example 174, 6-(3-Fluorophenyl)-N-{(1S,3R)-3-[(1-methylpiperidin-4-yl)carbamoyl]cyclopentyl}nicotinamide] | 1860 nM |
| NC(=O)[C@@H]1CC[C@H](NC(=O)c2ccc(-c3cccc(F)c3)nc2)C1 [Example 175, N-[(1S,3R)-3-Carbamoylcyclopentyl]-6-(3-fluorophenyl)nicotinamide] | 20.2 nM |
| O=C(N[C@H]1CC[C@@H](C(=O)N2CCNCC2)C1)c1ccc(-c2cccc(F)c2)nc1 [Example 176, 6-(3-Fluorophenyl)-N-[(1S,3R)-3-(piperazin-1-ylcarbonyl)cyclopentyl]nicotinamide] | 9 nM |
| O=C(N[C@@H]1CC[C@H](C(=O)N2CCOCC2)C1)c1ccc(-c2cccc(F)c2)nc1 [Example 179, 6-(3-Fluorophenyl)-N-[(1R,3S)-3-(morpholin-4-ylcarbonyl)cyclopentyl]nicotinamide] | 5.6 nM |
| O=C(N[C@@H]1CC[C@H](C(=O)N2CC[C@@H](F)C2)C1)c1ccc(-c2cccc(F)c2)nc1 [Example 180, 6-(3-Fluorophenyl)-N-[(1R,3S)-3-{[(3R)-3-fluoropyrrolidin-1-yl]carbonyl}cyclopentyl]nicotinamide] | 8.9 nM |
| CN1CCN(C(=O)[C@H]2CC[C@@H](NC(=O)c3ccc(-c4cccc(F)c4)nc3)C2)CC1=O [Example 182, 6-(3-Fluorophenyl)-N-[(1R,3S)-3-[(4-methyl-3-oxopiperazin-1-yl)carbonyl]cyclopentyl}nicotinamide] | 17.8 nM |
| CN(C)CCNC(=O)[C@H]1CC[C@@H](NC(=O)c2ccc(-c3cccc(F)c3)nc2)C1 [Example 183] | 75.2 nM |
| O=C(N[C@@H]1CC[C@H](C(=O)N2CCN(CCO)CC2)C1)c1ccc(-c2cccc(F)c2)nc1 [Example 184] | 20.3 nM |
| C[C@@H](CO)NC(=O)[C@H]1CCC[C@@H](NC(=O)c2ccc(-c3cccc(F)c3)nc2)C1 [Example 188] | 17.1 nM |
| N[C@@H]1[C@H]2CN(C(=O)[C@H]3CCC[C@@H](NC(=O)c4ccc(-c5cccc(F)c5)nc4)C3)C[C@@H]12 [Example 190, N-cis-3-{[(1R,5S,6S)-6-Amino-3-azabicyclo[3.1.0]hex-3-yl]carbonyl}cyclohexyl]-6-(3-fluorophenyl)nicotinamide hydrochloride] | 17.5 nM |
| C[C@@H](CO)NC(=O)[C@H]1CCC[C@@H](NC(=O)c2ccc(-c3cccc(F)c3)nc2)C1 [Example 194] | 14.7 nM |
| CCC(O)CNC(=O)[C@H]1CCC[C@@H](NC(=O)c2ccc(-c3cccc(F)c3)nc2)C1 (some centres unmarked) [Example 197] | 10.2 nM |
| C[C@H](O)C(=O)N[C@@H]1CCC[C@H](NC(=O)c2ccc(-c3cccc(F)c3)nc2)C1 [Example 206, 6-(3-Fluorophenyl)-N-{cis-3-{[(2S)-2-hydroxypropanoyl]amino}cyclohexyl]nicotinamide] | 13.5 nM |
| CN(C(=O)[C@H]1CC[C@H](NC(=O)c2ccc(-c3cccc(F)c3)nc2)CC1)C1CCNCC1 [Example 211, 6-(3-Fluorophenyl)-N-{trans-4-[methyl(piperidin-4-yl)carbamoyl]cyclohexyl}nicotinamide] | 13 nM |
| CCC(O)[C@H]1CC[C@H](NC(=O)c2ccc(-c3cccc(F)c3)nc2)CC1 (stereo partly drawn) [Example 214, 6-(3-Fluorophenyl)-N-[trans-4-(1-hydroxypropyl)cyclohexyl]nicotinamide] | 3 nM |
| CC(O)[C@H]1CC[C@H](NC(=O)c2ccc(-c3cccc(F)c3)nc2)CC1 (stereo partly drawn) [Example 215, 6-(3-Fluorophenyl)-N-[trans-4-(1-hydroxyethyl)cyclohexyl]nicotinamide] | 5.9 nM |
| CC(C)(O)C(=O)N[C@H]1CC[C@@H](NC(=O)c2ccc(-c3cccc(F)c3)nc2)CC1 [Example 216, 6-(3-Fluorophenyl)-N-{cis-4-[(2-hydroxy-2-methylpropanoyl)amino]cyclohexyl}nicotinamide] | 31.8 nM |
| O=C(CO)N[C@H]1CC[C@@H](NC(=O)c2ccc(-c3cccc(F)c3)nc2)CC1 [Example 220, 6-(3-fluorophenyl)-N-[cis-4-(glycoloylamino)cyclohexyl]nicotinamide] | 32.7 nM |
| COC1(CO)CCC(NC(=O)c2ccc(-c3cccc(F)c3)nc2)CC1 (centres unmarked) [Example 225, 6-(3-Fluorophenyl)-N-[4-(hydroxymethyl)-4-methoxycyclohexyl]nicotinamide] | 5.3 nM |
| CC(C)OCC1(O)CCC(NC(=O)c2ccc(-c3cccc(F)c3)nc2)CC1 (centres unmarked) [Example 226, 6-(3-Fluorophenyl)-N-[4-hydroxy-4-(isopropoxymethyl)cyclohexyl]nicotinamide] | 13.2 nM |
| O=C(NC1CCC(O)(CO)CC1)c1ccc(-c2cccc(F)c2)nc1 (centres unmarked) [Example 227, 6-(3-Fluorophenyl)-N-[4-hydroxy-4-(hydroxymethyl)cyclohexyl]nicotinamide] | 23.8 nM |
| CNC(=O)OC(C)(C)[C@H]1CC[C@H](NC(=O)c2ccc(-c3cccc(F)c3)nc2)CC1 [Example 229, 1-[trans-4-({[6-(3-Fluorophenyl)pyridin-3-yl]carbonyl}amino)cyclohexyl]-1-methylethyl methylcarbamate] | 2.5 nM |

Continued by falling IC50, values first:

| IC50 | Structure (SMILES) |
| --- | --- |
| 79.7 nM | CN1CCC(C(=O)N[C@H]2CC[C@@H](NC(=O)c3ccc(-c4cccc(F)c4)nc3)CC2)CC1 [Example 218, 6-(3-fluorophenyl)-N-(cis-4-{[(1-methylpiperidin-4-yl)carbonyl]amino}cyclohexyl)nicotinamide] |
| 74 nM | NCC(=O)N[C@H]1CC[C@@H](NC(=O)c2ccc(-c3cccc(F)c3)nc2)CC1 [Example 224, 6-(3-fluorophenyl)-N-[cis-4-(glycylamino)cyclohexyl]nicotinamide] |
| 52.7 nM | CN(C)CC(=O)N[C@H]1CC[C@@H](NC(=O)c2ccc(-c3cccc(F)c3)nc2)CC1 [Example 221, N-{cis-4-[(N,N-dimethylglycyl)amino]cyclohexyl}-6-(3-fluorophenyl)nicotinamide] |
| 36 nM | O=C(N[C@H]1CC[C@H](N2CCCC2)CC1)c1ccc(-c2cccc(F)c2)nc1 [Example 213, 6-(3-Fluorophenyl)-N-(trans-4-pyrrolidin-1-ylcyclohexyl)nicotinamide] |
| 31 nM | O=C(N[C@H]1CC[C@H](C(=O)NC2CCNCC2)CC1)c1ccc(-c2cccc(F)c2)nc1 [Example 201, 6-(3-Fluorophenyl)-N-[trans-4-(piperidin-4-ylcarbamoyl)cyclohexyl]nicotinamide] |
| 30.7 nM | NC1CCN(C(=O)[C@H]2CC[C@@H](NC(=O)c3ccc(-c4cccc(F)c4)nc3)C2)CC1 [Example 187] |
| 25.4 nM | COCCNC(=O)[C@H]1CC[C@@H](NC(=O)c2ccc(-c3cccc(F)c3)nc2)C1 [Example 185] |
| 23.9 nM | NC(=O)[C@H]1CC[C@@H](NC(=O)c2ccc(-c3cccc(F)c3)nc2)C1 [Example 186, N-[(1R,3S)-3-Carbamoylcyclopentyl]-6-(3-fluorophenyl)nicotinamide] |
| 21.4 nM | NC1CCN(C(=O)[C@@H]2CC[C@H](NC(=O)c3ccc(-c4cccc(F)c4)nc3)C2)CC1 [Example 177, N-{(1S,3R)-3-[(4-Aminopiperidin-1-yl)carbonyl]cyclopentyl}-6-(3-fluorophenyl)nicotinamide] |
| 17.5 nM | CCCOCC1(O)CCC(NC(=O)c2ccc(-c3cccc(F)c3)nc2)CC1 (centres unmarked) [Example 228, 6-(3-Fluorophenyl)-N-[4-hydroxy-4-(propoxymethyl)cyclohexyl]nicotinamide] |
| 9.6 nM | N[C@@H]1[C@H]2CN(C(=O)[C@H]3CC[C@H](NC(=O)c4ccc(-c5cccc(F)c5)nc4)CC3)C[C@@H]12 [Example 210, N-(trans-4-{[(1R,5S,6S)-6-Amino-3-azabicyclo[3.1.0]hex-3-yl]carbonyl}cyclohexyl)-6-(3-fluorophenyl)nicotinamide] |
| 6.4 nM | CC(C)(CCO)NC(=O)[C@@H]1CC[C@H](NC(=O)c2ccc(-c3cccc(F)c3)nc2)C1 [Example 172, 6-(3-Fluorophenyl)-N-{(1S,3R)-3-[(3-hydroxy-1,1-dimethylpropyl)carbamoyl]cyclopentyl}nicotinamide] |
| 5.8 nM | O=C(N[C@@H]1CC[C@H](C(=O)N2CC[C@H](F)C2)C1)c1ccc(-c2cccc(F)c2)nc1 [Example 181, 6-(3-Fluorophenyl)-N-[(1R,3S)-3-{[(3S)-3-fluoropyrrolidin-1-yl]carbonyl}cyclopentyl]nicotinamide] |
| 4.4 nM | O=C(N[C@H]1CC[C@@H](C(=O)N2CCC(CCO)CC2)C1)c1ccc(-c2cccc(F)c2)nc1 [Example 168, 6-(3-Fluorophenyl)-N-[(1S,3R)-3-{(4-(2-hydroxyethyl)piperidin-1-yl]carbonyl}cyclopentyl]nicotinamide] |
| 2.3 nM | O=C(N[C@H]1CC[C@H]([C@H](O)C2CC2)CC1)c1ccc(-c2cccc(F)c2)nc1 [Example 212, N-[4-trans-((R)-Cyclopropylhydroxymethyl)cyclohexyl]-6-(3-fluorophenyl)nicotinamide] |
